Columns and labels:
Test in all cases: CTG-3D luminescence at 96 h relative to day-0 seeding control (ratio to day 0); higher = more growth / less cytotoxicity; PDxO 3D drug screen (set 2), 96 h, CTG-3D normalised to day-0 seeding control.
[1] = tested on: HCI-005.E2 (organoid from a breast cancer xenograft with a HER2-positive history)
[2] = tested on: HCI-017.E2 (organoid from an ER-positive breast cancer xenograft)
[3] = tested on: HCI-019 (organoid from a triple-negative breast cancer xenograft)
[4] = tested on: HCI-001 (organoid from a triple-negative breast cancer xenograft)
[5] = tested on: HCI-015 (organoid from a triple-negative breast cancer xenograft)
[6] = tested on: HCI-010 (organoid from a breast cancer xenograft)

CO[C@H]1C[C@@H]2CC[C@@H](C)[C@@](O)(O2)C(=O)C(=O)N2CCCC[C@H]2C(=O)O[C@H]([C@H](C)C[C@@H]2CC[C@@H](OCCO)[C@H](OC)C2)CC(=O)[C@H](C)/C=C(\C)[C@@H](O)[C@@H](OC)C(=O)[C@H](C)C[C@H](C)/C=C/C=C/C=C/1C [everolimus]
CTG-3D luminescence at 96 h
Settings	12.5 pM	0.00025 µM	0.005 µM	0.1 µM	1 µM	10 µM	100 µM	625 fM
[1]	1.05	1.43	1.45	1.18	0.769	0.653	-0.000603	1.6
[2]	1.59	1.63	1.8	1.25	0.822	0.73	0.00266	1.99

CTG-3D luminescence at 96 h
Settings	12.5 pM	0.00025 µM	0.005 µM	0.1 µM	1 µM	10 µM	100 µM	625 fM
[2], days in culture: 85	2.06	1.86	1.32	0.959	0.595	0.493	0.00146	2.29
[3], days in culture: 173	1.57	1.31	1.21	1.38	1.1	0.954	0.000122	1.63
[3], days in culture: 194	1.27	0.886	1.15	1.13	1.33	0.725	-0.00106	1.7
[3], days in culture: 215	0.96	0.554	0.902	0.622	0.482	0.326	0.000571	1.76
[4], days in culture: 365	1.99	1.3	1.52	1.53	1.65	1.34	0.0033	1.24
[4], days in culture: 397	1.23	1.76	1.92	1.59	1.16	1.33	-0.000266	0.913
[4], days in culture: 401	1.21	1.26	1.27	1.07	1.1	1.27	-0.00223	1.41
[5], days in culture: 333	1.5	1.05	0.891	0.744	0.932	0.782	0.00101	1.51
[5], days in culture: 355	2.02	1.85	1.47	1.79	0.526	0.358	-0.00285	1.7
[5], days in culture: 369	1.97	1.19	1.91	1.52	1.84	1.12	-0.00186	1.61
[6], days in culture: 79	1.18	1.21	1.18	1.28	1.13	1.12	-0.00276	1.31
[6], days in culture: 86	1.76	1.9	1.53	1.19	0.809	0.648	-0.000872	2.35
[6], days in culture: 102	1.16	0.848	0.691	0.497	0.337	0.158	-0.000165	1.13
[6], days in culture: 164	1.53	1.42	1.25	0.906	0.778	0.581	0.000191	1.52

CCOc1ccn(-c2ccc(F)cc2)c(=O)c1C(=O)Nc1ccc(Oc2ccnc(N)c2Cl)c(F)c1 [ASLAN002]
CTG-3D luminescence at 96 h
Settings	12.5 pM	0.00025 µM	0.005 µM	0.1 µM	1 µM	10 µM	100 µM	625 fM
[1]	1.72	2.16	2.37	2.74	2.59	2.35	1.45	2.25
[2]	2.06	2.58	2.12	2.27	2.14	2.39	1.17	2.34

CTG-3D luminescence at 96 h
Settings	12.5 pM	0.00025 µM	0.005 µM	0.1 µM	1 µM	10 µM	100 µM	625 fM
[2], days in culture: 85	2.5	1.78	1.94	2.7	2.23	1.93	1.32	2.13
[3], days in culture: 173	2.03	1.61	1.52	3.51	1.6	1.16	1.12	1.28
[3], days in culture: 194	1.11	1.59	0.978	1.46	0.851	0.875	1.1	1.75
[3], days in culture: 215	1.3	0.756	1.22	1.28	2.09	0.724	0.591	1.91
[4], days in culture: 365	2.86	2.78	2.5	3.1	2.44	1.84	1.6	1.69
[4], days in culture: 397	1.79	2.1	2.38	1.93	2.27	2.43	1.01	1.87
[4], days in culture: 401	1.59	1.66	1.76	1.83	1.66	1.29	0.84	1.76
[5], days in culture: 333	1.68	1.64	0.866	1.08	0.841	0.711	0.501	1.57
[5], days in culture: 355	1.87	3.41	1.5	1.76	1.71	2.18	0.883	2.05
[5], days in culture: 369	2.27	1.62	2.12	1.97	2.23	1.38	1.18	1.94
[6], days in culture: 79	1.78	1.68	1.94	2.05	1.8	1.55	0.742	1.97
[6], days in culture: 86	2.24	2.35	2.82	2.77	2.48	2.23	0.77	2.51
[6], days in culture: 102	1.1	1.26	1.21	1.48	1.41	1.14	0.252	0.941
[6], days in culture: 164	1.62	1.61	1.72	1.74	1.66	1.3	0.248	1.36

C[C@@H](Nc1cc(F)cc(F)c1)c1cc(C(=O)N(C)C)cc2c(=O)cc(N3CCOCC3)oc12 [AZD-8186]
CTG-3D luminescence at 96 h
Settings	12.5 pM	0.00025 µM	0.005 µM	0.1 µM	1 µM	10 µM	100 µM	625 fM
[1]	1.82	2.18	2.26	2.54	2.24	1.51	0.592	1.97
[2]	2.08	2.64	2.27	2.48	1.89	1.096	0.252	2.74

CTG-3D luminescence at 96 h
Settings	12.5 pM	0.00025 µM	0.005 µM	0.1 µM	1 µM	10 µM	100 µM	625 fM
[2], days in culture: 85	1.85	1.86	1.62	2.05	1.45	1.14	0.197	2.07
[3], days in culture: 173	3.42	1.4	1.36	2.98	2.28	0.532	0.37	1.05
[3], days in culture: 194	1.94	1.36	1.46	2.1	1.87	1.3	0.367	1.03
[3], days in culture: 215	1.9	1.48	0.854	1.62	0.82	1.39	0.374	1.8
[4], days in culture: 365	2.63	2.2	2.38	2.83	1.84	1.13	1.08	1.53
[4], days in culture: 397	1.79	2.6	2.23	2.14	1.81	1.69	0.737	1.6
[4], days in culture: 401	1.64	1.69	1.59	1.76	1.28	1.24	0.924	1.69
[5], days in culture: 333	2.09	1.46	1.76	1.33	1.37	0.684	0.452	1.77
[5], days in culture: 355	1.76	3.09	1.3	1.46	1.12	2.35	0.668	1.57
[5], days in culture: 369	2.35	1.7	1.96	1.84	2.18	1.24	1.01	1.96
[6], days in culture: 79	1.88	1.85	1.94	1.98	1.58	1.1	0.138	2.14
[6], days in culture: 86	2.26	2.36	2.34	2.1	1.99	1.67	0.321	2.16
[6], days in culture: 102	1.18	0.973	1.18	1.19	1.19	0.856	0.0314	1.26
[6], days in culture: 164	1.6	1.49	1.64	1.37	1.4	1.02	0.0763	1.52
